In brackets after ≈: the same amount, converted by molar mass.
Columns and labels:
[1] = Stability of compound in rat microsomes assessed as half-life; type: ADME, Microsome
[2] = Inhibition of recombinant mouse GALK1 using ATP as substrate incubated for 1 hr and measured by Kinase-Glo assay
[3] = Kinetic aqueous solubility of the compound; type: physicochemical; details: buffer; read-out: Kinetic_solubility

| SMILES | half-life [1] | IC50 ([2]; read-out: IC50) | solubility kinetic [3] | IC50 [2] |
| --- | --- | --- | --- | --- |
| CC1=C(C(=O)Nc2ccc(CN3CCOCC3)cc2)C(c2ccccc2Cl)N=C(Nc2nc3ccccc3o2)N1 (centres undefined) | 22.3 min | 9.68 µM | < 1 µg/mL | – |
| CC1=C(C(=O)Nc2ccccn2)C(c2ccccc2Cl)N=C(Nc2nc3ccc(F)cc3o2)N1 (centres undefined) | > 30 min | 10.9 µM | < 1 µg/mL | – |
| CC1=C(C(=O)Nc2ccccc2F)C(c2ccccc2Cl)N=C(Nc2nc3ccccc3o2)N1 (centres undefined) | > 30 min | 9.68 µM | < 1 µg/mL | – |
| CC1=C(C(=O)Nc2ccc(C(=O)N3CCOCC3)cc2)C(c2ccccc2Cl)N=C(Nc2nc3ccccc3o2)N1 (centres undefined) | > 30 min | 21.7 µM | < 1 µg/mL | – |
| O/N=C1\CCCC2=C1C(c1ccccc1Cl)N=C(Nc1nc3ccccc3o1)N2 (centres undefined) | 5.48 min | 10.9 µM | < 1 µg/mL | – |
| CC(C)CC1=C(C(=O)Nc2nncs2)C(c2ccccc2Cl)N=C(Nc2nc3ccccc3o2)N1 (centres undefined) | > 30 min | 17.2 µM | < 1 µg/mL | – |
| COC(=O)c1cc(NC(=O)C2=C(C)NC(Nc3nc4ccccc4o3)=NC2c2ccccc2Cl)ccn1 (centres undefined) | > 30 min | 10.9 µM | < 1 µg/mL | – |
| CC1=C(C(=O)Nc2nncs2)C2(CCSCC2)N=C(Nc2nc3ccccc3o2)N1 | > 30 min | 24.3 µM | 3.5 µg/mL (≈ 7.93 µM) | – |
| COC(=O)c1ccnc(NC(=O)C2=C(C)NC(Nc3nc4ccccc4o3)=NC2c2ccccc2Cl)c1 (centres undefined) | 18.4 min | 5.44 µM | < 1 µg/mL | – |
| CC1=C(C(=O)Nc2cccc(C(N)=O)c2)C(c2ccccc2Cl)N=C(Nc2nc3ccccc3o2)N1 (centres undefined) | > 30 min | 17.2 µM | < 1 µg/mL | – |
| COc1ccc(C(=O)O)cc1NC(=O)C1=C(C)NC(Nc2nc3ccc(F)cc3o2)=NC1c1ccccc1Cl (centres undefined) | > 30 min | 12.2 µM | 53.3 µg/mL (≈ 96.9 µM) | – |
| CC1=C(C(=O)Nc2nncs2)C(c2nn(C)cc2Cl)N=C(Nc2nc3ccccc3o2)N1 (centres undefined) | > 30 min | 17.2 µM | 12.8 µg/mL (≈ 27.2 µM) | – |
| CC1=C(C(=O)Nc2cc(C(=O)O)ccn2)C(c2ccc(-c3ccc(C(F)(F)F)cc3)cc2Cl)N=C(Nc2nc3ccc(F)cc3o2)N1 (centres undefined) | > 30 min | 21.7 µM | 8.1 µg/mL (≈ 12.2 µM) | – |
| CC1=C(C(=O)Nc2cccc(F)c2)C(c2ccccc2Cl)N=C(Nc2nc3ccccc3o2)N1 (centres undefined) | > 30 min | 12.2 µM | < 1 µg/mL | – |
| CC1=C(C(=O)Nc2cc(C(=O)O)ccn2)C(c2ccc(N3CCCCC3)cc2Cl)N=C(Nc2nc3ccc(F)cc3o2)N1 (centres undefined) | > 30 min | 12.2 µM | 1.92 µg/mL (≈ 3.18 µM) | – |
| CC1=C(C(=O)Nc2cc(C(N)=O)ccn2)C(c2ccccc2Cl)N=C(Nc2nc3ccccc3o2)N1 (centres undefined) | > 30 min | 7.69 µM | < 1 µg/mL | – |
| COC(=O)Cc1ccc(NC(=O)C2=C(C)NC(Nc3nc4ccccc4o3)=NC2c2ccccc2Cl)cc1 (centres undefined) | 7.46 min | 12.2 µM | < 1 µg/mL | – |
| CC1=C(C(=O)Nc2cc(C(N)=O)ccn2)C(c2ccccc2Cl)N=C(Nc2nc3ccc(F)cc3o2)N1 (centres undefined) | > 30 min | 19.3 µM | 2.4 µg/mL (≈ 4.62 µM) | – |
| CC1=C(C(=O)Nc2nncs2)C(c2c(Br)cnn2C)N=C(Nc2nc3ccccc3o2)N1 (centres undefined) | > 30 min | – | 38.7 µg/mL (≈ 75.2 µM) | Not Active |
| CC1=C(C(=O)Nc2cccnc2)C(c2ccccc2Cl)N=C(Nc2nc3ccccc3o2)N1 (centres undefined) | 20 min | 12.2 µM | < 1 µg/mL | – |
| CC1=C(C(=O)Nc2nncs2)C(c2ncccc2Cl)N=C(Nc2nc3ccccc3o2)N1 (centres undefined) | > 30 min | 19.3 µM | 10.6 µg/mL (≈ 22.7 µM) | – |
| COC(=O)c1ccc(NC(=O)C2=C(C)NC(Nc3nc4ccccc4o3)=NC2c2ccccc2Cl)cc1 (centres undefined) | 17.7 min | 9.68 µM | < 1 µg/mL | – |
| CC1=C(C(=O)Nc2cc(N(C)C)ccn2)C(c2ccc(C)cc2Cl)N=C(Nc2nc3ccc(F)cc3o2)N1 (centres undefined) | 17.6 min | 6.85 µM | 6.2 µg/mL (≈ 11.6 µM) | – |
| CC1=C(C(=O)Nc2nncs2)C(c2cccnc2Br)N=C(Nc2nc3ccccc3o2)N1 (centres undefined) | > 30 min | 19.3 µM | 11.1 µg/mL (≈ 21.7 µM) | – |
| CC1=C(C(=O)Nc2nncs2)C2(CCOC2)N=C(Nc2nc3ccccc3o2)N1 (centres undefined) | > 30 min | – | 37.9 µg/mL (≈ 92.1 µM) | Not Active |
| CC1=C(C(=O)Nc2nncs2)C(c2ccccc2C)N=C(Nc2nc3ccccc3o2)N1 (centres undefined) | > 30 min | 21.7 µM | < 1 µg/mL | – |
| COCCNC(=O)C1CC(=O)C2=C(C1)NC(Nc1nc3ccccc3o1)=NC2c1ccccc1Cl (centres undefined) | 10.2 min | 4.85 µM | 4.23 µg/mL (≈ 8.56 µM) | – |
| O=C1NCCC2=C1C(c1ccccc1Cl)N=C(Nc1nc3ccccc3o1)N2 (centres undefined) | 27.1 min | 21.7 µM | < 1 µg/mL | – |
| CC1=C(C(=O)Nc2ccc(N(C)C)cc2)C(c2ccccc2Cl)N=C(Nc2nc3ccccc3o2)N1 (centres undefined) | 11.5 min | 13.7 µM | < 1 µg/mL | – |
| O=C(Nc1nncs1)C1=C(c2cnccn2)NC(Nc2nc3ccccc3o2)=NC1c1ccccc1Cl (centres undefined) | > 30 min | 21.7 µM | 2.1 µg/mL (≈ 3.96 µM) | – |

Continued, values first:

| half-life [1] | IC50 ([2]; read-out: IC50) | solubility kinetic [3] | IC50 [2] | SMILES |
| --- | --- | --- | --- | --- |
| 72.5 min | 4.32 µM | 10 µg/mL (≈ 20.5 µM) | – | CC1=C(C(=O)Nc2ccc(CN)cc2)C(c2ccccc2Cl)N=C(Nc2nc3ccccc3o2)N1 (centres undefined) |
| 5.12 min | 12.2 µM | > 49 µg/mL | – | CC1=C(C(=O)NCc2cnn(C)c2)C(c2ccc(C)cc2Cl)N=C(Nc2nc3cnccc3o2)N1 (centres undefined) |
| 18.7 min | 3.06 µM | 1.56 µg/mL (≈ 2.64 µM) | – | CC1=C(C(=O)NCc2cnn(CC(F)(F)F)c2)C(c2ccc(C)cc2Cl)N=C(Nc2nc3ccc(F)c(N)c3o2)N1 (centres undefined) |
| 13.8 min | 15.3 µM | < 1 µg/mL | – | CC1=C(C(=O)NCc2ccc(CO)cc2)C(c2ccccc2Cl)N=C(Nc2nc3ccccc3o2)N1 (centres undefined) |
| > 30 min | 3.43 µM | > 72 µg/mL | – | CC1=C(C(=O)NCc2cnn(C)c2)C(c2ccccc2Cl)N=C(Nc2nc3cccc(N)c3o2)N1 (centres undefined) |
| 14.4 min | 4.32 µM | < 1 µg/mL | – | CC1=C(C(=O)NCc2cnn(C(C)(C)C)c2)C(c2ccc(C)cc2Cl)N=C(Nc2nc3ccc(F)c(N)c3o2)N1 (centres undefined) |
| 17.7 min | 2.17 µM | 23.9 µg/mL (≈ 45.6 µM) | – | CCn1cc(CNC(=O)C2=C(C)NC(Nc3nc4ccc(F)c(N)c4o3)=NC2c2ccccc2Cl)cn1 (centres undefined) |
| 15.7 min | 12.2 µM | 24.2 µg/mL (≈ 50.8 µM) | – | CC1=C(C(=O)NCc2cnn(C)c2)C(c2ccccc2Cl)N=C(Nc2nc3ccccc3o2)N1 (centres undefined) |
| 8.49 min | 8.63 µM | < 1 µg/mL | – | COC(=O)c1ccc(CNC(=O)C2=C(C)NC(Nc3nc4ccccc4o3)=NC2c2ccccc2Cl)cc1 (centres undefined) |
| > 30 min | 1.93 µM | 5.9 µg/mL (≈ 10.9 µM) | – | CC1=C(C(=O)NCc2cnn(C)c2)C(c2ccc(Cl)cc2Cl)N=C(Nc2nc3ccc(F)c(N)c3o2)N1 (centres undefined) |
| 11.3 min | – | < 1 µg/mL | Not Active | CC1=C(C(=O)NCc2ccc(F)cc2)C(c2ccccc2Cl)N=C(Nc2nc3ccccc3o2)N1 (centres undefined) |
| 29.6 min | 6.85 µM | 49.6 µg/mL (≈ 97.5 µM) | – | CC1=C(C(=O)NCc2cnn(C)c2)C(c2ccc(F)cc2Cl)N=C(Nc2nc3cccc(N)c3o2)N1 (centres undefined) |
| 1.4 min | 12.2 µM | < 1 µg/mL | – | COc1ccccc1CNC(=O)C1=C(C)NC(Nc2nc3ccccc3o2)=NC1c1ccccc1Cl (centres undefined) |
| 8.62 min | 10.9 µM | < 1 µg/mL | – | CCn1cc(CNC(=O)C2=C(C)NC(Nc3nc4ccc(F)c(N)c4o3)=N[C@@H]2c2ccc(C)cc2Cl)cn1 |
| 30.8 min | – | < 1 µg/mL | Not Active | CC1=C(C(=O)Nc2ccc(Cl)cn2)C(c2ccccc2Cl)N=C(Nc2nc3ccccc3o2)N1 (centres undefined) |
| 17.8 min | 6.85 µM | 15.6 µg/mL (≈ 29.7 µM) | – | CC1=C(C(=O)NCc2cnn(C)c2)C(c2ccc(Cl)cc2Cl)N=C(Nc2nc3cccc(N)c3o2)N1 (centres undefined) |
| 6.15 min | – | > 49 µg/mL | Not Active | CC1=C(C(=O)NCc2cnn(C)c2)C(c2ccc(C)cc2Cl)N=C(Nc2nc3ncccc3o2)N1 (centres undefined) |
| > 30 min | 1.72 µM | > 78 µg/mL | – | CC1=C(C(=O)Nc2cc(C(=O)O)ccn2)C(c2ccc(C)cc2Cl)N=C(Nc2nc3cccc(N)c3o2)N1 (racemic) |
| 26 min | 12.2 µM | 13.7 µg/mL (≈ 27.7 µM) | – | CC1=C(C(=O)NCc2cnn(C)c2)C(c2ccccc2Cl)N=C(Nc2nc3ccc(F)cc3o2)N1 (centres undefined) |
| 5.62 min | 4.32 µM | 46.1 µg/mL (≈ 96.9 µM) | – | CC1=C(C(=O)NCc2cn(C)cn2)[C@H](c2ccccc2Cl)N=C(Nc2nc3ccccc3o2)N1 |
| 11.3 min | 3.06 µM | 2.43 µg/mL (≈ 4.68 µM) | – | CCn1cc(CNC(=O)C2=C(C)NC(Nc3nc4cccc(N)c4o3)=NC2c2ccc(C)cc2Cl)cn1 (centres undefined) |
| 2.66 min | 4.85 µM | < 1 µg/mL | – | CC1=C(C(=O)NCc2c(C)nn(C)c2C)C(c2ccc(C)cc2Cl)N=C(Nc2nc3ccc(F)cc3o2)N1 (centres undefined) |
| 6.79 min | 1.93 µM | < 1 µg/mL | – | CCn1cc(CNC(=O)C2=C(C)NC(Nc3nc4ccc(F)c(N)c4o3)=NC2c2ccc(Cl)cc2Cl)cn1 (centres undefined) |
| > 30 min | 19.3 µM | < 1 µg/mL | – | CC1=C(C(=O)Nc2nc(CO)cs2)C(c2ccccc2Cl)N=C(Nc2nc3ccccc3o2)N1 (centres undefined) |
| > 30 min | 5.44 µM | < 1 µg/mL | – | COc1ccc(C2N=C(Nc3nc4ccccc4o3)NC(C)=C2C(=O)Nc2nncs2)c(Cl)c1 (centres undefined) |
| 6.57 min | 12.2 µM | < 1 µg/mL | – | CC1=C(C(=O)NCc2cccc(CO)c2)C(c2ccccc2Cl)N=C(Nc2nc3ccccc3o2)N1 (centres undefined) |
| > 30 min | 19.3 µM | < 1 µg/mL | – | CC1=C(C(=O)Nc2ccccn2)C(c2ccccc2Cl)N=C(Nc2nc3cccc(N)c3o2)N1 (centres undefined) |
| 3.66 min | – | 4.8 µg/mL (≈ 9.78 µM) | Not Active | CC1=C(C(=O)NCc2cnn(C)c2)C(c2ccc(C)cc2Cl)N=C(Nc2nc3cccnc3o2)N1 (centres undefined) |

Reference: ChEMBL document CHEMBL5050861 (2021)
